Biological target: T1, human H3R (Homo sapiens, UniProt Q9Y5N1)
T1 construct: expressed in transfected cells; host or cells: CHO cells
Assay: Binding assay with 3H-(R)α-methylhistamine (competition binding)
Conditions: competition binding vs 3H(R)α-methylhistamine (1 nM), membrane of the human H3R-CHO cell line; Ki calculated from IC50 by Cheng-Prusoff equation
Protocol: Binding Assay with ^3H—(R)α-methylhistamine
Saturation binding experiments were performed using HR3-CHO membranes prepared as described in Takahashi, K, Tokita, S., Kotani, H. (2003) J. Pharmacol. Exp. Therapeutics 307, 213-218.
An appropriate amount of membrane (60 to 80 μg protein/well) was incubated with increasing concentrations of ^3H(R)α-Methylhistamine di-hydrochloride (0.10 to 10 nM). Non specific binding was determined using a 200 fold excess of cold (R)α-methyl-histamine dihydrobromide (500 nM final concentration). The incubation was carried out at room temperature (in deep-well plates shaking for three hours). The final volume in each well was 250 μl. The incubation was followed by rapid filtration on GF/B filters (pre-soaked with 100 μl of 0.5% PEI in Tris 50 mM shaking at 200 rpm for two hours). The filtration was made using a cell-harvester and the filter plates were then washed five times with ice cold washing buffer containing 0.5 M NaCl. After harvesting, the plates were dried at 55° C. for 60 min, then scintillation fluid (Microscint 40, 40 microl in each well) was added and the amount of radioactivity on the filter was determined in Packard top-counter after shaking the plates for two hours at 200 rpm at room temperature.
Binding Buffer: 50 mM Tris-HCl pH 7.4 and 5 mM MgCl2×6H2O pH 7.4. Washing Buffer: 50 mM Tris-HCl pH 7.4 and 5 mM MgCl2×6H2O and 0.5 M NaCl pH 7.4.
Indirect measurement of affinity of H3R inverse agonists: twelve increasing concentrations (ranging from 10 μM to 0.3 nM) of the selected compounds were always tested in competition binding experiments using membrane of the human H3R—CHO cell line. […]
All compounds were tested at a single concentration in duplicate. […] Ki's were calculated from IC50 based on Cheng-Prusoff equation (Cheng, Y, Prusoff, W H (1973) Biochem Pharmacol 22, 3099-3108): Ki=IC50/[1+D/Kd] wherein D is the concentration of the radioligand and Kd is the binding constant for the radioligand binding to the receptor under the conditions used in the competition experiment.

T1 sequence (Q9Y5N1 whole entry): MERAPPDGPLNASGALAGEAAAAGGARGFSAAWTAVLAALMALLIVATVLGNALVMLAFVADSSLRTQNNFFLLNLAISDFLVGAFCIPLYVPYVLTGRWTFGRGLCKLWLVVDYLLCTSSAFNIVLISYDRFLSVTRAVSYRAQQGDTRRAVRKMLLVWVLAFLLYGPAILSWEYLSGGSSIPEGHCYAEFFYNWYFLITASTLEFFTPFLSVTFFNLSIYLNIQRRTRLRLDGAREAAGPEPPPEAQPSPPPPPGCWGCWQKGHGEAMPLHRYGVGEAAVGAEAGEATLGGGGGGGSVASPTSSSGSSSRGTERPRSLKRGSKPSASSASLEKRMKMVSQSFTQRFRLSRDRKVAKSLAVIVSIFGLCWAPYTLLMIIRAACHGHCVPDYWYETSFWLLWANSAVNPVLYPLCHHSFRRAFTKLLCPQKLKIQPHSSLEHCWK

Row | SMILES | Ki
1 | CCN1CCC(n2ccc3cc(C(=O)N4CCN(C5CCCC5)CC4)ccc32)C1 (stereo not drawn) [Example 6, (4-cyclopentyl-piperazin-1-yl)-[1-(1-ethyl-pyrrolidin-3-yl)-1H-indol-5-yl]-methanone] | 5.9 nM
2 | O=C(c1ccc2c(ccn2CC2CCCN(Cc3ccccc3)C2)c1)N1CCN(C2CCCC2)CC1 (stereo not drawn) [Example 11, [1-(1-benzyl-piperidin-3-ylmethyl)-1H-indol-5-yl]-(4-cyclopentyl-piperazin-1-yl)-methanone] | 12.1 nM
3 | CC(C)N1CCN(C(=O)c2ccc3c(ccn3CCCN3CCCCC3C)c2)CC1 (stereo not drawn) [Example 59, (4-isopropyl-piperazin-1-yl)-{1-[3-(2-methyl-piperidin-1-yl)-propyl]-1H-indol-5-yl}-methanone] | 15.4 nM

— US7432255B2, “1H-indol-5-yl-piperazin-1-yl-methanone derivatives” (Hoffmann-La Roche Inc., priority 2006, dated 2008)
